In article PMC10060569 (Frontiers in Pharmacology, 2023):

Biological target: T1, hP2X2R (Homo sapiens, UniProt Q9UBL9)
T1 construct: expressed in transfected cells; host or cells: Xenopus laevis oocytes (cRNA injection)
T1 sequence (Q9UBL9 1-471): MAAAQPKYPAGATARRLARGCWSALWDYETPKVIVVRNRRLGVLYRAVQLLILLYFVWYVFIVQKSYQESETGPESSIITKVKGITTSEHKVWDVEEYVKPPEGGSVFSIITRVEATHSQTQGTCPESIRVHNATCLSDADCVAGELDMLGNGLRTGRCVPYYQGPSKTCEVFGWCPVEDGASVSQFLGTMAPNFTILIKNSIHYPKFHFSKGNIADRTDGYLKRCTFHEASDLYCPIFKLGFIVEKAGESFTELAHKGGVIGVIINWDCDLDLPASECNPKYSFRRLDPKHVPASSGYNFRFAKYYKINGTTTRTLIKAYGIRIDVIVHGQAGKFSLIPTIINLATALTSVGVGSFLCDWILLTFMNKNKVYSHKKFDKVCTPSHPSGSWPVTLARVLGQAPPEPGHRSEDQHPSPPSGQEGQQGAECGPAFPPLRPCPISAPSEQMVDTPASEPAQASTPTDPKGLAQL
Assay: TEVC of ATP-induced currents, hP2X2R in X. laevis oocytes (steady-state protocol)
Type: cell-based
From the text: Oocyte expression plasmids encoding the wild-type (wt) and N-terminally His-tagged (His-) fusion constructs of the hP2X2R, hP2X3R, hP2X4R, and hP2X7R, and the mutant His-^20RMVL^23KVIV^23S^26N-hP2X1R, S^15V-rP2X3R, and His-S^15V-hP2X3R were the same as used in previous research ([Hausmann et al., 2006]; [Wolf et al., 2011]; [Hausmann et al., 2014]; [Obrecht et al., 2019]). In most cases, the N-terminal His-tagged variants of P2XRs were used here and in the previous studies to allow biochemical analyses on affinity-purified proteins using the same constructs. Although this was not required for the present study, it allows for better comparability with our previous studies. Capped cRNAs of different P2XRs were already available in the research group or were synthesized as previously described ([Schmalzing et al., 1991]; [Stolz et al., 2015]). cRNA was injected into collagenase-defolliculated X. laevis oocytes in aliquots of 41 nl or 23 nl (see Supplementary Table S1 for the amount of cRNA used for expression of the indicated P2XR) using a Nanoliter 2000 injector (World Precision Instruments, Sarasota, United States of America) as described previously ([Hausmann et al., 2014]; [Stolz et al., 2015]; [Obrecht et al., 2019]). To express the heteromeric hP2X2/3 receptor, cRNAs encoding His-hP2X2R and wt-hP2X3R were coinjected at a ratio (w/w) of 1:6. Oocytes were stored at 19°C in an oocyte ringer solution (ORi^+) containing 90 mM NaCl, 1 mM KCl, 1 mM CaCl2, 1 mM MgCl2, and 10 mM HEPES (Carl Roth, Karlsruhe, Germany) adjusted to pH 7.4 with NaOH and supplemented with 50 μg/ml gentamicin (AppliChem, Darmstadt, Germany). The procedures followed for the maintenance of and the surgical treatment for X. laevis adults were approved by the governmental animal care and use committee of the State Agency for Nature, Environment, and Consumer Protection (LANUV, Recklinghausen, Germany; reference no. 81-02.04.2019. A355), in compliance with Directive 2010/63/EU of the European Parliament and of the Council on the protection of animals used for scientific purpose.
Ion currents mediated by P2X receptors were evoked by the indicated concentration of ATP or α,β-meATP and were recorded 1 or 2 days after cRNA injection at ambient temperature at a holding potential of −60 mV by two-electrode voltage clamp (TEVC) as previously described ([Hausmann et al., 2006]). Calcium-free ORi^− solution (90 mM NaCl, 1 mM KCl, 2 mM MgCl2, 10 mM HEPES, pH 7.4) was used to avoid bias due to calcium-activated chloride channels (CaCC) endogenously expressed in X. laevis oocytes ([Miledi, 1982]; [Methfessel et al., 1986]). For recordings of wt-hP2X7R, the composition of the ORi^− solution was modified according to protocols described previously and contained 100 mM NaCl, 2.5 mM KCl, 1 mM MgCl2, 5 mM HEPES, pH 7.4 ([Klapperstück et al., 2000]). The oocytes were continuously superfused with ORi^− by gravity flow (5–10 ml/min). The agonists ATP or α,β-meATP and the investigated NSAIDs were diluted in ORi^− on the day of the recording. The following agonist concentrations were used for the different P2X subtypes: 1 μM ATP (hP2X1R mutant, hP2X3R, rP2X3R, S^15V-hP2X3R, and S^15V-rP2X3R); 10 μM ATP (hP2X2R and hP2X4R); 300 μM free ATP^4- (hP2X7R); and 1 μM α,β-meATP (hP2X2/3R). […]

Row | Structure (SMILES) | EC50 (10 µM ATP, concentration–response curve, read-out: half-maximal potentiation value) [µM] | increase in hP2X2R current amplitude (potentiation) on co-application with ATP (10 µM ATP, compared to steady-state current in absence of the drug) [fold] | IC50 (10 µM ATP, steady-state protocol, * no inhibition, but potentiation) | Max. inhibition at 1 mM (10 µM ATP, * no inhibition, but potentiation) | agonist effect (current induced in the absence of ATP) (100 µM diclofenac, 300 µM FFA, absence of ATP)
1 | O=C(O)c1ccccc1Nc1cccc(C(F)(F)F)c1 [Flufenamic acid, flufenamic acid] | 158 |  |  |  | 
2 | O=C(O)Cc1ccccc1Nc1c(Cl)cccc1Cl [Diclofenac, diclofenac] |  | 1.7 | no inh.* | no inh.* | Neither 100 µM diclofenac nor 300 µM FFA induced current
